# Test results taken from patent US6562824B2, “Dihydropyridine soft drugs, and related compositions and methods” (Ortho-McNeil Pharmaceutical, Inc., priority 2000, dated 2003).
# Molecular target: T1, Calcium Channel (3H-nitrendipine binding site, heart membranes) (Oryctolagus cuniculus, UniProt P15381)
# T1 construct: from tissue; host or cells: rabbit heart membrane preparation
# Experiment: Assay for Inhibition of Nitrendipine Binding (3H-nitrendipine, rabbit heart membranes)
# Details: 3H-nitrendipine 0.05-0.50 nM, 90 minutes
# Method: Female, New Zealand white rabbits (1-2 kg) are sacrificed by cervical dislocation, and the heart is immediately removed, cleaned and chopped into small pieces. The tissue is homogenized in 5× times volume of 0.05M Hepes buffer, pH 7.4. The homogenate is centrifuged at 4000g for 10 minutes, and the supernatant is re-centrifuged at 42,000× g for 90 minutes. The resulting membrane pellet is resuspended (0.7 ml/g weight) in 0.05M Hepes, pH 7.4 and stored at […] until used. Each tube of the binding assay contains ^3H-nitrendipine (0.05-0.50 nM), buffer, membranes (0.10 ml), and test compound in a total volume of 1.0 ml. After 90 minutes at 4≦ C., the bound nitrendipine is separated from the unbound by filtration on Whatman GF/C filters. After rinsing, the filters are dried and counted in a liquid scintillation counter.
# Non-specific binding of ^3H-nitrendipine (that amount bound in the presence of excess unlabelled nitrendipine) is subtracted from the total bound to obtain specifically bound radiolabeled nitrendipine. The amount of specifically bound nitrendipine in the presence of a test compound is compared to that amount bound in the absence of a compound. A percent displacement (or inhibition) can then be calculated.
# T1 sequence (P15381 whole entry): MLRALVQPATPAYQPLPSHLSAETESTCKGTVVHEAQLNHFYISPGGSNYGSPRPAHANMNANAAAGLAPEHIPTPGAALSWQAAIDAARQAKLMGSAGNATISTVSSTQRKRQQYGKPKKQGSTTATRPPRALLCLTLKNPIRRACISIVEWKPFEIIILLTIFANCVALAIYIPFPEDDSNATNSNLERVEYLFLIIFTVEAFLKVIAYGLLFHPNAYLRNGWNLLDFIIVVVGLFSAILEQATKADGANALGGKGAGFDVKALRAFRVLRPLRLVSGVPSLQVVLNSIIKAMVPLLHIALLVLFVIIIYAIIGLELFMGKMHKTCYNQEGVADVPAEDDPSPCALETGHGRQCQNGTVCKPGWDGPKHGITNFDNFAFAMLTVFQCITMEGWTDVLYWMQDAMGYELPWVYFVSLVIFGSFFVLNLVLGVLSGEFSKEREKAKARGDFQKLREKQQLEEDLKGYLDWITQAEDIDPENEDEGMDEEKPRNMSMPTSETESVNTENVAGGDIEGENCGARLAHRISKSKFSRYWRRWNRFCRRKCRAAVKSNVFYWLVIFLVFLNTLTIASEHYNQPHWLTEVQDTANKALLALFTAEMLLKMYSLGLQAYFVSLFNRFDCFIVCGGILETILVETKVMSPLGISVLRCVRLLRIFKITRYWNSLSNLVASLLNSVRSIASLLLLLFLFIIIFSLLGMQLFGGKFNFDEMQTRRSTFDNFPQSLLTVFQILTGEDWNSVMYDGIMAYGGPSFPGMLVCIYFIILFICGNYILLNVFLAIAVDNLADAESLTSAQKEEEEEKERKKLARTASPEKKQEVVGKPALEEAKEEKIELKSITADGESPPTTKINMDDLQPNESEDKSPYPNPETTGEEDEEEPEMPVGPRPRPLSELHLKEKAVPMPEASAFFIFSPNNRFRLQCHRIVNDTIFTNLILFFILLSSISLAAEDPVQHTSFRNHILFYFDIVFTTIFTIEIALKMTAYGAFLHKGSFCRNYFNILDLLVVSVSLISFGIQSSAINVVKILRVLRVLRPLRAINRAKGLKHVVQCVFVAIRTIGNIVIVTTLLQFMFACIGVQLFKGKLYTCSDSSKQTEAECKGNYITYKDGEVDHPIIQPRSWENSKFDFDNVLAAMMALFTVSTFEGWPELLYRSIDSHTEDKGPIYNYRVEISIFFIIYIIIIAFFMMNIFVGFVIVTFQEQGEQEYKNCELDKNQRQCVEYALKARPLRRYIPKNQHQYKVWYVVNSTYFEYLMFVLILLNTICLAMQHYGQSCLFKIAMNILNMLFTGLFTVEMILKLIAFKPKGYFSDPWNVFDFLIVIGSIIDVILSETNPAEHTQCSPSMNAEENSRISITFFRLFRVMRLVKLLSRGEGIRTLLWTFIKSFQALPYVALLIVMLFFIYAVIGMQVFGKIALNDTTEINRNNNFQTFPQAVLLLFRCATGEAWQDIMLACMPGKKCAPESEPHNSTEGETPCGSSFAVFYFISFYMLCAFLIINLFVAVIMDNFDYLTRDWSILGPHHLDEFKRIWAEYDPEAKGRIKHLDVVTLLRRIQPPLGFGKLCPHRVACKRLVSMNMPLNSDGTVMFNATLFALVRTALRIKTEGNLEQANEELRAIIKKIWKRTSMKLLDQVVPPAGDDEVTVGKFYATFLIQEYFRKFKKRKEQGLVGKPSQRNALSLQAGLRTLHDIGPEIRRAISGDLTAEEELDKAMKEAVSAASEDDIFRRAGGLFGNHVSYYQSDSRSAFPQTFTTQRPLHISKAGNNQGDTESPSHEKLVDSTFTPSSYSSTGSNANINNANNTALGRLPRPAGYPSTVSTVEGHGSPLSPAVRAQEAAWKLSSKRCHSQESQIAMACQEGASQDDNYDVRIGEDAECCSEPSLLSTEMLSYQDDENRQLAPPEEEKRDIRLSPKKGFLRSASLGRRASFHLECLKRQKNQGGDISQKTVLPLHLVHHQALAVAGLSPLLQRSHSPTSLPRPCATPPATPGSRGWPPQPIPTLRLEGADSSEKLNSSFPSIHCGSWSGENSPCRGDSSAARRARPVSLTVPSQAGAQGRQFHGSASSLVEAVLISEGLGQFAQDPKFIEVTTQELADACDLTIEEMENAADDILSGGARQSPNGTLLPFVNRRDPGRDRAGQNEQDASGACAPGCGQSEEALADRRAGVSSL
"IC50 (Table 1, Formula Ii compounds)","IC50 (Table 2, Formula Ij compounds)",SMILES
51000 nM,,"CC1=C(C(=O)OCCOC(=O)C(N)CCCCN)C(c2c(F)cccc2Cl)C2=C(CS(=O)(=O)CCS2(=O)=O)N1 (single isomer, unassigned) [Compound 64]"
48 nM,,"CC1=C(C(=O)OCCOC(=O)c2ccc(C(F)(F)F)cc2)C(c2c(F)cccc2Cl)C2=C(CS(=O)(=O)CCS2(=O)=O)N1 (centres unmarked) [Compound 11, 5H-[1,4]dithiepino[6,5-b]pyridine-8-carboxylic acid, 9-(2-chloro-6-fluorophenyl)-2,3,6,9-tetrahydro-7-methyl-, 2-[[4-(trifluoromethyl)benzoyl]oxy]ethyl ester, 1,1,4,4-tetraoxide]"
48 nM,,CC1=C(C(=O)OCCOC(=O)CCc2ccccc2)C(c2c(F)cccc2Cl)C2=C(CS(=O)(=O)CCS2(=O)=O)N1 (centres unmarked) [Compound 12]
61 nM,,CC1=C(C(=O)OCCOC(=O)c2cccc(C#N)c2)C(c2c(F)cccc2Cl)C2=C(CS(=O)(=O)CCS2(=O)=O)N1 (centres unmarked) [Compound 18]
69 nM,,COc1ccc(C(=O)OCCOC(=O)C2=C(C)NC3=C(C2c2c(F)cccc2Cl)S(=O)(=O)CCS(=O)(=O)C3)cc1 (centres unmarked) [Compound 20]
72 nM,,CC1=C(C(=O)OCc2oc(=O)oc2C)C(c2cccc(Cl)c2Cl)C2=C(CS(=O)(=O)CCS2(=O)=O)N1 (centres unmarked) [Compound 21]
175 nM,,CC1=C(C(=O)OCCOC(=O)C(CCCCNC(=O)OCc2ccccc2)NC(=O)OC(C)(C)C)C(c2c(F)cccc2Cl)C2=C(CS(=O)(=O)CCS2(=O)=O)N1 (centres unmarked) [Compound 29]
358 nM,,CC1=C(C(=O)OCCOC(=O)C(Cc2ccccc2)NC(=O)c2ccccc2)C(c2c(F)cccc2Cl)C2=C(CS(=O)(=O)CCS2(=O)=O)N1 (centres unmarked) [Compound 38]
405 nM,,CC1=C(C(=O)OCCOC(=O)C(NC(=O)OC(C)(C)C)C(C)C)C(c2c(F)cccc2Cl)C2=C(CS(=O)(=O)CCS2(=O)=O)N1 (centres unmarked) [Compound 40]
456 nM,,CC1=C(C(=O)OC2CCOC2=O)C(c2cccc(Cl)c2Cl)C2=C(CS(=O)(=O)CCS2(=O)=O)N1 (centres unmarked) [Compound 43]
505 nM,,CC1=C(C(=O)OCCOC(=O)c2cccnc2)C(c2c(F)cccc2Cl)C2=C(CS(=O)(=O)CCS2(=O)=O)N1 (centres unmarked) [Compound 44]
541 nM,,CC1=C(C(=O)OCCOC(=O)C(Cc2ccccc2)N(C)C)C(c2c(F)cccc2Cl)C2=C(CS(=O)(=O)CCS2(=O)=O)N1 (centres unmarked) [Compound 45]
2320 nM,,CC1=C(C(=O)OCCOC(=O)C(C)C)C(c2c(F)cccc2Cl)C2=C(CS(=O)(=O)CCS2(=O)=O)N1 (centres unmarked) [Compound 56]
19400 nM,,CC1=C(C(=O)OCCOC(=O)C2CCOC2=O)C(c2c(F)cccc2Cl)C2=C(CS(=O)(=O)CCS2(=O)=O)N1 (centres unmarked) [Compound 62]
49000 nM,,CC1=C(C(=O)OCCOC(=O)CCN2CCCCC2)C(c2c(F)cccc2Cl)C2=C(CS(=O)(=O)CCS2(=O)=O)N1 (centres unmarked) [Compound 63]
,49 nM,"CC1=C(C(=O)OCCOC(=O)c2cccc(C#N)c2)C(c2c(F)cccc2Cl)C2=C(CS(=O)(=O)CCCS2(=O)=O)N1 (centres unmarked) [Compound 68, 2H,6H-[1,5]dithiocino[3,2-b]pyridine-9-carboxylic acid, 10-(2-chloro-6-fluorophenyl)-3,4,7,10-tetrahydro-8-methyl-, 2-[(3-cyanobenzoyl)oxy]ethyl ester, 1,1,5,5-tetraoxide]"
,65 nM,"CC1=C(C(=O)OCCOC(=O)C2CCCCC2)C(c2c(F)cccc2Cl)C2=C(CS(=O)(=O)CCCS2(=O)=O)N1 (centres unmarked) [Compound 70, 2H,6H-[1,5]dithiocino[3,2-b]pyridine-9-carboxylic acid, 10-(2-chloro-6-fluorophenyl)-3,4,7,10-tetrahydro-8-methyl-, 2-[(cyclohexylcarbonyl)oxy]ethyl ester, 1,1,5,5-tetraoxide]"
